Read-outs that look alike come from different tables or passages of the source.

The target in test [1] is T1, NS3-NS4A protease (Hepatitis C virus genotype 1a, UniProt P27958).
T1 construct: Recombinant E. coli or Baculovirus full-length NS3 was diluted to 3.33 μM with assay buffer; made in house; host or cells: E. coli or baculovirus (BV) system
Put plainly: NS3-NS4A protease assay (NS3 inhibition assay, RETS1 substrate), Section B. Type of test: biochemical. The essentials:
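Kinetic fluorescence read (335 nm excitation, 495 nm emission, 30 min) of RETS1 cleavage by NS3/NS4A-2 complex, 2 nM E. coli or 3 nM baculovirus NS3, after 10 min room-temperature compound pre-incubation. Four-parameter-fit IC50s converted to Ki by Cheng–Prusoff, Ki=IC50/(1+[S]/Km).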

Test [2] concerns HCV sub-genomic replicon, GS4.3. Put plainly: Quantitation by ELISA of NPTII in the HCV sub-genomic replicon, GS4.3, Section B. Type of test: cell-based. The conditions noted are these: Hepatitis C virus, read-out: Replicon EC50. The essentials: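 NPTII marker protein in lysates was quantified by ELISA read at 450 nm after 72 h inhibitor exposure (3-fold series, final DMSO 1%, G418-free medium) of HuH-7 cells stably harbouring the subgenomic HCV replicon. Values relative to DMSO-treated controls; 4-parameter curves gave EC50.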
For orientation: ELISA stands for enzyme-linked immunosorbent assay.

T1 sequence (P27958 1027-1657): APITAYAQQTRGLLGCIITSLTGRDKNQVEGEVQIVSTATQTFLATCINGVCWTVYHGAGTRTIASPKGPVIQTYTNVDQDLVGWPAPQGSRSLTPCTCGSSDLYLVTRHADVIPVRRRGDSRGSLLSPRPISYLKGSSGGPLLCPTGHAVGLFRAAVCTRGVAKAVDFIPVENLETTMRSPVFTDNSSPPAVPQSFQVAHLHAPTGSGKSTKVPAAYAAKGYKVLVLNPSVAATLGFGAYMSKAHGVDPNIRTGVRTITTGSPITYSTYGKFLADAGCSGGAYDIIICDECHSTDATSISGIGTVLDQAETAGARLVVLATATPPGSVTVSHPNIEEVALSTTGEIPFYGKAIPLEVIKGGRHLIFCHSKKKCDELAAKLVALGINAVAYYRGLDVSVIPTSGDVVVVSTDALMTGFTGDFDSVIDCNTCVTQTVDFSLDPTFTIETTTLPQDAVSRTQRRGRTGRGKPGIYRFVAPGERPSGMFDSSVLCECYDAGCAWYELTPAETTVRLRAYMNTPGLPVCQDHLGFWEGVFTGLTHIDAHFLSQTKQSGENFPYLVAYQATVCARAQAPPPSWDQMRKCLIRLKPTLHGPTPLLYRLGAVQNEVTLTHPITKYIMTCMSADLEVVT

Consider `O=C(CCC(F)(F)F)N[C@H]1CCCCC/C=C\[C@@H]2C[C@@]2(C(=O)NS(=O)(=O)C2CC2)NC(=O)[C@@H]2C[C@@H](OC(=O)N3Cc4cccc(F)c4C3)CN2C1=O` [AR00338071, (1S,4R,6S,14S,18R)-4-Fluoro-1,3-dihydro-isoindole-2-carboxylic acid 4-cyclopropanesulfonylaminocarbonyl-2,15-dioxo-14-(4,4,4-trifluoro-butyrylamino)-3,16-diaza-tricyclo[14.3.0.0^4,6]nonadec-7-en-18-yl ester], for which, in test [1] (read-out: NS3-NS4A IC50), the IC50 (usually the concentration that gives 50% inhibition) was below 100 nM. Besides, the EC50 (in general, the concentration that produces a half-maximal response) in test [2] (GS4.3 cells, 72 h incubation) is below 100 nM.
For `CC(C)(C)OC(=O)N[C@H]1CCCCC/C=C\[C@@H]2C[C@@]2(C(=O)O)NC(=O)[C@@H]2C[C@@H](OC(=O)N3CCc4c(N)cccc4C3)CN2C1=O` [AR00301745, (1S,4R,6S,14S,18R)-18-(5-Amino-3,4-dihydro-1H-isoquinoline-2-carbonyloxy)-14-tert-butoxycarbonylamino-2,15-dioxo-3,16-diaza-tricyclo[14.3.0.0^4,6]nonadec-7-ene-4-carboxylic acid], the IC50 in test [1] (read-out: NS3-NS4A IC50) is below 1000 nM. Also, in test [2] (GS4.3 cells, 72 h incubation), the EC50 is below 10000 nM.
Consider `O=C(N[C@H]1CCCCC/C=C\[C@@H]2C[C@@]2(C(=O)NS(=O)(=O)C2CC2)NC(=O)[C@@H]2C[C@@H](OC(=O)N3Cc4ccccc4C3)CN2C1=O)OCCF` [AR00320073, (1S,4R,6S,14S,18R)-1,3-Dihydro-isoindole-2-carboxylic acid 4-cyclopropanesulfonylaminocarbonyl-14-(2-fluoro-ethoxycarbonylamino)-2,15-dioxo-3,16-diaza-tricyclo[14.3.0.0^4,6]nonadec-7-en-18-yl ester], for which the IC50 in test [1] (read-out: NS3-NS4A IC50) was below 100 nM. Also, in test [2] (GS4.3 cells, 72 h incubation), the EC50 is below 100 nM.
On to `CC(C)(C)OC(=O)N[C@H]1CCCCC/C=C\[C@@H]2C[C@@]2(C(=O)NS(=O)(=O)c2ccc(Cl)cc2)NC(=O)[C@@H]2C[C@@H](OC(=O)N3Cc4ccccc4C3)CN2C1=O` [AR00334250, (1S,4R,6S,14S,18R)-1,3-Dihydro-isoindole-2-carboxylic acid 14-tert-butoxycarbonylamino-4-(4-chloro-benzenesulfonylaminocarbonyl)-2,15-dioxo-3,16-diaza-tricyclo[14.3.0.0^4,6]nonadec-7-en-18-yl ester], for which the half-inhibitory concentration (IC50) in test [1] (read-out: NS3-NS4A IC50) was below 100 nM. For the same compound, the concentration for a half-maximal effect (EC50) in test [2] (GS4.3 cells, 72 h incubation) is below 100 nM.
For the compound `CC(C)(C)OC(=O)N[C@H]1CCCCC/C=C\[C@@H]2C[C@@]2(C(=O)NS(=O)(=O)C2CC2)NC(=O)[C@@H]2C[C@@H](OC(=O)N3Cc4ccc(OCCCN5CCOCC5)cc4C3)CN2C1=O` [AR00345075, (1S,4R,6S,14S,18R)-5-(3-Morpholin-4-yl-propoxy)-1,3-dihydro-isoindole-2-carboxylic acid 14-tert-butoxycarbonylamino-4-cyclopropanesulfonylaminocarbonyl-2,15-dioxo-3,16-diaza-tricyclo[14.3.0.0^4,6]nonadec-7-en-18-yl ester], in test [1] (read-out: NS3-NS4A IC50), the IC50 was below 100 nM. Further, in test [2] (GS4.3 cells, 72 h incubation), the EC50 is below 1000 nM.
For `CC(C)(C)OC(=O)N[C@H]1CCCCC/C=C\[C@@H]2C[C@@]2(C(=O)NS(=O)(=O)c2ccc(C#N)cc2)NC(=O)[C@@H]2C[C@@H](OC(=O)N3Cc4ccccc4C3)CN2C1=O` [AR00334248, (1S,4R,6S,14S,18R)-1,3-Dihydro-isoindole-2-carboxylic acid 14-tert-butoxycarbonylamino-4-(4-cyano-benzenesulfonylaminocarbonyl)-2,15-dioxo-3,16-diaza-tricyclo[14.3.0.0^4,6]nonadec-7-en-18-yl ester], the IC50 in test [1] (read-out: NS3-NS4A IC50) is below 100 nM. Further, in test [2] (GS4.3 cells, 72 h incubation), the 50% effective concentration (EC50) is below 1000 nM.
As for `O=C(NC1CCCC1)N[C@H]1CCCCC/C=C\[C@@H]2C[C@@]2(C(=O)NS(=O)(=O)C2CC2)NC(=O)[C@@H]2C[C@@H](OC(=O)N3CCc4cccc(C(F)(F)F)c4C3)CN2C1=O` [AR00304081, (1S,4R,6S,14S,18R)-8-Trifluoromethyl-3,4-dihydro-1H-isoquinoline-2-carboxylic acid 14-(3-cyclopentyl-ureido)-4-cyclopropanesulfonylaminocarbonyl-2,15-dioxo-3,16-diaza-tricyclo[14.3.0.0^4,6]nonadec-7-en-18-yl ester], the IC50 in test [1] (read-out: NS3-NS4A IC50) was below 100 nM. Also, in test [2] (GS4.3 cells, 72 h incubation), the EC50 was below 1000 nM.
Take `CC(C)[C@@H](NC(=O)c1cccnc1)C(=O)N[C@H]1CCCCC/C=C\[C@@H]2C[C@@]2(C(=O)O)NC(=O)[C@@H]2C[C@@H](OC(=O)N3CCc4ccccc4C3)CN2C1=O` [AR00304073, (1S,4R,6S,14S,18R)-18-(3,4-Dihydro-1H-isoquinoline-2-carbonyloxy)-14-{3-methyl-2-[(pyridine-3-carbonyl)-amino]-butyrylamino}-2,15-dioxo-3,16-diaza-tricyclo[14.3.0.0^4,6]nonadec-7-ene-4-carboxylic acid]: the IC50 in test [1] is below 1000 nM. The EC50 in test [2] (72 h) is below 10000 nM.
As to `CC(C)(C)OC(=O)N[C@H]1CCCCC/C=C\[C@@H]2C[C@@]2(C(=O)NS(=O)(=O)C2CC2)NC(=O)[C@@H]2C[C@@H](OC(=O)N3Cc4ccc(N5CCOCC5)cc4C3)CN2C1=O` [AR00340494, (1S,4R,6S,14S,18R)-5-Morpholin-4-yl-1,3-dihydro-isoindole-2-carboxylic acid 14-tert-butoxycarbonylamino-4-cyclopropanesulfonylaminocarbonyl-2,15-dioxo-3,16-diaza-tricyclo[14.3.0.0^4,6]nonadec-7-en-18-yl ester], in test [1] (read-out: NS3-NS4A IC50), the IC50 is below 100 nM. Further, the EC50 in test [2] (GS4.3 cells, 72 h incubation) was below 100 nM.
Take `CC(C)(C)CC(=O)N[C@H]1CCCCC/C=C\[C@@H]2C[C@@]2(C(=O)NS(=O)(=O)C2CC2)NC(=O)[C@@H]2C[C@@H](OC(=O)N3Cc4ccc(Cl)cc4C3)CN2C1=O` [AR00334225, (1S,4R,6S,14S,18R)-5-Chloro-1,3-dihydro-isoindole-2-carboxylic acid 4-cyclopropanesulfonylaminocarbonyl-14-(3,3-dimethyl-butyrylamino)-2,15-dioxo-3,16-diaza-tricyclo[14.3.0.0^4,6]nonadec-7-en-18-yl ester]: the IC50 in test [1] (read-out: NS3-NS4A IC50) is below 100 nM. Also, in test [2] (GS4.3 cells, 72 h incubation), the EC50 is below 1000 nM.
The corresponding values for `CC(C)(C)OC(=O)N[C@H]1CCCCC/C=C\[C@@H]2C[C@@]2(C(=O)NS(=O)(=O)C2CC2)NC(=O)[C@@H]2C[C@@H](OC(=O)N3Cc4cccc(F)c4C3)CN2C1=O` [AR00334191, (1S,4R,6S,14S,18R)-4-Fluoro-1,3-dihydro-isoindole-2-carboxylic acid 14-tert-butoxycarbonylamino-4-cyclopropanesulfonylaminocarbonyl-2,15-dioxo-3,16-diaza-tricyclo[14.3.0.0^4,6]nonadec-7-en-18-yl ester] are below 100 nM and below 100 nM.
For `O=C(N[C@H]1CCCCC/C=C\[C@@H]2C[C@@]2(C(=O)O)NC(=O)[C@@H]2C[C@@H](OC(=O)N3CCc4ccccc4C3)CN2C1=O)OCCF` [AR00304125, (1S,4R,6S,14S,18R)-18-(3,4-Dihydro-1H-isoquinoline-2-carbonyloxy)-14-(2-fluoro-ethoxycarbonylamino)-2,15-dioxo-3,16-diaza-tricyclo[14.3.0.0^4,6]nonadec-7-ene-4-carboxylic acid], in that order: below 1000 nM and below 10000 nM.
`CC(C)[C@@H](NC(=O)c1ccc(N(C)C)nc1)C(=O)N[C@H]1CCCCC/C=C\[C@@H]2C[C@@]2(C(=O)O)NC(=O)[C@@H]2C[C@@H](OC(=O)N3CCc4ccccc4C3)CN2C1=O` [AR00304072, (1S,4R,6S,14S,18R)-18-(3,4-Dihydro-1H-isoquinoline-2-carbonyloxy)-14-{2-[(6-dimethylamino-pyridine-3-carbonyl)-amino]-3-methyl-butyrylamino}-2,15-dioxo-3,16-diaza-tricyclo[14.3.0.0^4,6]nonadec-7-ene-4-carboxylic acid] displayed an IC50 in test [1] below 1000 nM. Moreover, the EC50 in test [2] (72 h) is below 10000 nM.
Take `CC(C)(C)NC(=O)N[C@H]1CCCCC/C=C\[C@@H]2C[C@@]2(C(=O)NS(=O)(=O)C2CC2)NC(=O)[C@@H]2C[C@@H](OC(=O)N3CCc4ccccc4C3)CN2C1=O` [AR00320001, (1S,4R,6S,14S,18R)-3,4-Dihydro-1H-isoquinoline-2-carboxylic acid 14-(3-tert-butyl-ureido)-4-cyclopropanesulfonylaminocarbonyl-2,15-dioxo-3,16-diaza-tricyclo[14.3.0.0^4,6]nonadec-7-en-18-yl ester]: the 50% inhibitory concentration (IC50) in test [1] (read-out: NS3-NS4A IC50) is below 100 nM. Further, the EC50 in test [2] (GS4.3 cells, 72 h incubation) was below 100 nM.
As for `C[C@H]1CN(C(=O)O[C@@H]2C[C@H]3C(=O)N[C@]4(C(=O)NS(=O)(=O)C5CC5)C[C@H]4/C=C\CCCCC[C@H](NC(=O)OC(C)(C)C)C(=O)N3C2)Cc2ccccc21` [AR00333462, (1S,4R,6S,14S,18R)-4R-Methyl-3,4-dihydro-1H-isoquinoline-2-carboxylic acid 14-tert-butoxycarbonylamino-4-cyclopropanesulfonylaminocarbonyl-2,15-dioxo-3,16-diaza-tricyclo[14.3.0.0^4,6]nonadec-7-en-18-yl ester], the IC50 in test [1] (read-out: NS3-NS4A IC50) is below 100 nM. In test [2] (GS4.3 cells, 72 h incubation), the EC50 was below 100 nM.
For `CC(C)(C)OC(=O)N[C@H]1CCCCC/C=C\[C@@H]2C[C@@]2(C(=O)O)NC(=O)[C@@H]2C[C@@H](OC(=O)N3Cc4ccccc4C4(CCC4)C3)CN2C1=O` [AR00304065, (1S,4R,6S,14S,18R)-14-tert-Butoxycarbonylamino-18-(4,4-spirocyclobutyl-3,4-dihydro-1H-isoquinoline-2-carbonyloxy)-2,15-dioxo-3,16-diaza-tricyclo[14.3.0.0^4,6]nonadec-7-ene-4-carboxylic acid], the IC50 in test [1] (read-out: NS3-NS4A IC50) was below 1000 nM. Further, the EC50 in test [2] (GS4.3 cells, 72 h incubation) was below 10000 nM.

Values taken from patent US7491794B2, “Macrocyclic compounds as inhibitors of viral replication” (Intermune, Inc., priority 2003, dated 2009).
